According to EP0602465A1, “Use of CN substituted benzimidazoles” (BAYER AG, priority 1992, dated 1994):

Experiments:
Assay in all cases: Coccidiosis in chickens: oocyst excretion in faeces (McMaster chamber)
Format in all cases: in vivo
Conditions in all cases: 3 days before until 8 days after infection, chicks 9 to 11 days old, 40 000 sporulated oocysts, 100 % = no effect, 0 % = full effect
[1] = tested on: E. maxima
[2] = tested on: E.acervulina
[3] = tested on: E. tenella

Row | SMILES | E. maxima Oocytenausscheidung in % im Vergleich zur unbehandelten infizierten Kontrolle ([1]; Dosis 100 ppm in feed) | E. maxima Oocytenausscheidung in % im Vergleich zur unbehandelten infizierten Kontrolle ([1]; Dosis 250 ppm in feed) | E.acervulina Oocystenausscheidung in % im Vergleich zur unbehandelten infizierten Kontrolle ([2]; Dosis 100 ppm in feed) | E.acervulina Oocystenausscheidung in % im Vergleich zur unbehandelten infizierten Kontrolle ([2]; Dosis 250 ppm in feed) | E. tenella ([3]; Dosis 100 ppm in feed) | E. tenella ([3]; Dosis 250 ppm in feed)
1 | CCCCN(Cn1c(C#N)nc2c(Br)cc(C(F)(F)F)cc21)C(=O)OC [Beispiel 37] | 26% | 0% | 28% | 0,5% | 32% | 0%
2 | CC(C)OC(=O)N(Cc1ccccc1)Cn1c(C#N)nc2c(Br)cc(C(F)(F)F)cc21 [Beispiel 57] | 5,3% | 0% | 38% | 0,01% | 93% | 0%
